# According to patent publication US11629154B2, “Tetrahydropyranooxazine derivatives having selective BACE1 inhibitory activity” (SHIONOGI & CO., LTD., priority 2018, dated 2023):
# What was measured:
# [1] = target: human ether-a-go-go related gene (hERG) channel (Homo sapiens (Human), UniProt Q12809); assay: hERG test; assay type: cell-based; conditions: CHO cells expressing hERG
# Description: For the purpose of assessing risk of an electrocardiogram QT interval prolongation, effects on delayed rectifier K+ current (IKr), which plays an important role in the ventricular repolarization process of the compound of the present invention, was studied using CHO cells expressing human ether-a-go-go related gene (hERG) channel.
# A cell was retained at a membrane potential of −80 mV by whole cell patch clamp method using an automated patch clamp system (QPatch; Sophion Bioscience A/S). After application of leak potential at −50 mV, IKr induced by depolarization pulse stimulation at +20 mV for 2 seconds and, further, repolarization pulse stimulation at −50 mV for 2 seconds was recorded.
# Further, the % inhibition relative to the tail peak current before application of the compound of the present invention was calculated, and compared with the vehicle-applied group (0.1% dimethyl sulfoxide solution) to assess influence of the compound of the present invention on IKr.
# [2] = tested on: Abeta 1-42 in cerebrospinal fluid (CSF); assay: Pharmacology in the beagle dog: beta-amyloid profile in CSF; assay type: in vivo
# Experimental: Test compounds were tested to evaluate the effect on the beta-amyloid profile in cerebrospinal fluid (CSF) of dogs after a single dose, in combination with pharmacokinetic (PK) follow up and limited safety evaluation.
# In the case of compounds shown below, two or 4 beagle dogs (1 or 2 male, 1 or 2 female) were dosed with vehicle (1 mL/kg of an aqueous solution of 20% cyclodextrin) and 4 beagle dogs (2 males and 2 females) per dose group were dosed with test compound at the doses indicated in Table 20 in an aqueous 20% cyclodextrin solution with a concentration in mg/mL identical to the dose given in mg/kg) on an empty stomach.
# CSF was taken in conscious animals directly from the lateral ventricle via a cannula which was screwed in the skull and covered with subcutaneous tissue and skin, before and at 4, 8, 25 and 49 hours after dosing. Eight hours after dosing the animals got access to their regular meal for 30 minutes. Blood was taken for PK follow up (0.5, 1, 2, 4, 8, 25 and 49 hours) and serum samples for biochemistry were taken before and at 8 and 25h after dosing. The CSF samples were used for measurement of Abeta 1-37, Abeta 1-38, Abeta 1-40 and Abeta 1-42.
# CYP3A4 = CYP3A4 (Homo sapiens (Human), UniProt P08684); assay: CYP3A4(MDZ) MBI test; assay type: in vitro ADME; conditions: pooled human liver microsomes, midazolam 1-hydroxylation, preincubation 0 or 30 minutes
# Experimental: CYP3A4(MDZ) MBI test is a test of investigating mechanism based inhibition (MBI) potential on CYP3A4 inhibition of a compound. CYP3A4 inhibition is evaluated using 1-hydroxylation reaction of midazolam (MDZ) by pooled human liver microsomes as a marker reaction.
# The reaction conditions were as follows: substrate, 10 μmol/L MDZ; pre-reaction time, 0 or 30 minutes; substrate reaction time, 2 minutes; reaction temperature, 37° C.; protein content of pooled human liver microsomes, 0.5 mg/mL at pre-reaction time, […] (at 10-fold dilution) at reaction time; concentrations of the compound of the present invention, 1, 5, 10, 20 μmol/L (4 points).
# Pooled human liver microsomes in a K-Pi buffer (pH 7.4) and a compound of the present invention solution as a pre-reaction solution were added to a 96-well plate at the composition of the pre-reaction. A part of pre-reaction solution was transferred to another 96-well plate, and diluted 10-fold by a substrate in a K-Pi buffer. NADPH as a co-factor was added to initiate the marker reaction (without preincubation). After a predetermined time of the marker reaction, methanol/acetonitrile=1/1 (v/v) solution was added in order to terminate the marker reaction. On the other hand, NADPH was also added to a remaining pre-reaction solution in order to initiate a pre-reaction (with preincubation). After a predetermined time of a pre-reaction, a part was transferred to another 96-well plate, and diluted 10-fold by a substrate in a K-Pi buffer in order to initiate the marker reaction. After a predetermined time of the marker reaction, methanol/acetonitrile=1/1 (v/v) solution is added in order to terminate the marker reaction. After centrifuged at 3000 rpm for 15 minutes, 1-hydroxymidazolam in the supernatant is quantified by LC/MS/MS.
# The sample adding DMSO to a reaction system instead of compound of the present invention solution was adopted as a control (100%) because DMSO is used as a solvent to dissolve a compound of the present invention. Remaining activity (%) was calculated at each concentration of the compound of the present invention added as the solution, and IC50 value was calculated by reverse-presumption using a logistic model with a concentration and an inhibition rate. Shifted IC value was calculated as “IC value without preincubation (0 minutes)/IC value with preincubation (30 minutes)″. When a shifted IC value was 1.5 or more, this was defined as positive. When a shifted IC value was less than 1.1, this was defined as negative.
# Chain of human ether-a-go-go related gene (hERG) channel (Q12809 whole entry): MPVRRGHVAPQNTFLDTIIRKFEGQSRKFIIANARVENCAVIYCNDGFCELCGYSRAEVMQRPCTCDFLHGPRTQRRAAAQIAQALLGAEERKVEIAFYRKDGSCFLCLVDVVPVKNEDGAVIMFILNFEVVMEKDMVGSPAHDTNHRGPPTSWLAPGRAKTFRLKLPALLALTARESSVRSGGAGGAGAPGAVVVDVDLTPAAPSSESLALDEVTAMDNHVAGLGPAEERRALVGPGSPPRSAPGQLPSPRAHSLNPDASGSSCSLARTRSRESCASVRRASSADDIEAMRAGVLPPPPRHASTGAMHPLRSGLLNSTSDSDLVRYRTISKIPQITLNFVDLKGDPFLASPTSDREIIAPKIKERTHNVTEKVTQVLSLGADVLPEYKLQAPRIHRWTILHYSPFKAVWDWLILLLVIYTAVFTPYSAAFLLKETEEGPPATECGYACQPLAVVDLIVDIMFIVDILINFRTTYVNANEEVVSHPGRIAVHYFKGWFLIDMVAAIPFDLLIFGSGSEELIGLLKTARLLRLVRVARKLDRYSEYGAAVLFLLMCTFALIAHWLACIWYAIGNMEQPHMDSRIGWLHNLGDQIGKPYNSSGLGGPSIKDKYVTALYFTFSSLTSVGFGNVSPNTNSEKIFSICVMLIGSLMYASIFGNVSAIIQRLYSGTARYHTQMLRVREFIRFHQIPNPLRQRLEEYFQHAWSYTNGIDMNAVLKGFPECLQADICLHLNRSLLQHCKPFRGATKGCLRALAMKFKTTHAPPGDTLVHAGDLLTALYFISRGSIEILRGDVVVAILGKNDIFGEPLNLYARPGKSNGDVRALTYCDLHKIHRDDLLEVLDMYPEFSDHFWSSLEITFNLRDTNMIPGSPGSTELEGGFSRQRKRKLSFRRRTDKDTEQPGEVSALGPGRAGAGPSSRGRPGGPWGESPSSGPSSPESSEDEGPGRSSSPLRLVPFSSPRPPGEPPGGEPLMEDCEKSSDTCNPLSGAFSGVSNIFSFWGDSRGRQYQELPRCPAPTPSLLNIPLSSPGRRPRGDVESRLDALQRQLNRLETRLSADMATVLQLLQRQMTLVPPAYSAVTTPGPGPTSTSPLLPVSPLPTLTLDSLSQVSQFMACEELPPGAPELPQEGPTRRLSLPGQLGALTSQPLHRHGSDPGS
# Chain of CYP3A4 (P08684 whole entry): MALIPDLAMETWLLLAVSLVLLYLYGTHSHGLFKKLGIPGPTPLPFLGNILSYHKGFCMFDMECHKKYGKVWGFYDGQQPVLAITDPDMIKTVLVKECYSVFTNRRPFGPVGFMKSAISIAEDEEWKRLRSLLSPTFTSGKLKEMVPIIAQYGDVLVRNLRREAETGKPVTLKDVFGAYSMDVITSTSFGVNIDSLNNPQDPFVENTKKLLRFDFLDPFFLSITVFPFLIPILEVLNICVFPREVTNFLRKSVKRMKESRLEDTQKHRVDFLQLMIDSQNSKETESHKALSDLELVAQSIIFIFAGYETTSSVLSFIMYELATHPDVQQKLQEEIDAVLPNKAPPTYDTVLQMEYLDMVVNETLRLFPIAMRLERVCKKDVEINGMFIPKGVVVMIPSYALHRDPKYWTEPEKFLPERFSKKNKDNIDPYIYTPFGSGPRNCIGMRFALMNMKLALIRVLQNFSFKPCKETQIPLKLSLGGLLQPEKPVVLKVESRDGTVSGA
Structure (SMILES),hERG inhibition (%) at 3 μM [1] [%],% Decrease in Abeta 1-42 at 8 h post dosing compared to own baseline ([2]; single dose 0.31 mg/kg) [%],% Decrease in Abeta 1-42 at 8 h post dosing compared to own baseline ([2]; single dose 0.63 mg/kg) [%],% Decrease in Abeta 1-42 at 24 h^(a) or 25 h^(b) post dosing compared to own baseline ([2]; single dose 0.63 mg/kg) [%],MBI MDZ (CYP3A4),also measured
NC1=N[C@](CF)(c2cc(NC(=O)c3cnc(OCF)cn3)ccc2F)[C@H]2COCC[C@H]2O1 [Compound I-007],6.83,−61,−69,−48,"Negative (When a shifted IC value was less than 1.1, this was defined as negative)",% Decrease in Abeta 1-42 at 24 h^(a) or 25 h^(b) post dosing compared to own baseline ([2]; single dose 0.31 mg/kg): −23%; % Decrease in Abeta 1-42 at 8 h post dosing compared to own baseline ([2]; single dose 3.75 mg/kg): −64%; % Decrease in Abeta 1-42 at 24 h^(a) or 25 h^(b) post dosing compared to own baseline ([2]; single dose 3.75 mg/kg): −82%; % Decrease in Abeta 1-42 at 49 h post dosing compared to own baseline ([2]; single dose 3.75 mg/kg): −40%
C[C@@H]1C[C@H]2OC(N)=N[C@](CF)(c3cc(NC(=O)c4cnc(OCF)cn4)ccc3F)[C@H]2CO1 [Compound I-008],18.5,−57,−58,−48,"Negative (When a shifted IC value was less than 1.1, this was defined as negative)",% Decrease in Abeta 1-42 at 24 h^(a) or 25 h^(b) post dosing compared to own baseline ([2]; single dose 0.31 mg/kg): −28%; % Decrease in Abeta 1-42 at 49 h post dosing compared to own baseline ([2]; single dose 0.31 mg/kg): −25%; % Decrease in Abeta 1-42 at 8 h post dosing compared to own baseline ([2]; single dose 2.5 mg/kg): −81%; % Decrease in Abeta 1-42 at 24 h^(a) or 25 h^(b) post dosing compared to own baseline ([2]; single dose 2.5 mg/kg): −76%; % Decrease in Abeta 1-42 at 49 h post dosing compared to own baseline ([2]; single dose 2.5 mg/kg): −49%
NC1=N[C@](CF)(c2cc(NC(=O)c3cnc(-n4cncn4)cn3)ccc2F)[C@H]2COCC[C@H]2O1 [Compound I-047],11.6,,,,"Negative (When a shifted IC value was less than 1.1, this was defined as negative)",
C[C@@H]1C[C@H]2OC(N)=N[C@](CF)(c3cc(NC(=O)c4cnc(OCF)cn4)ccc3Cl)[C@H]2CO1 [Compound I-065],37.8,,−49,−52,"Negative (When a shifted IC value was less than 1.1, this was defined as negative)",% Decrease in Abeta 1-42 at 49 h post dosing compared to own baseline ([2]; single dose 0.63 mg/kg): −20%; % Decrease in Abeta 1-42 at 8 h post dosing compared to own baseline ([2]; single dose 1.25 mg/kg): −59%; % Decrease in Abeta 1-42 at 24 h^(a) or 25 h^(b) post dosing compared to own baseline ([2]; single dose 1.25 mg/kg): −56%; % Decrease in Abeta 1-42 at 49 h post dosing compared to own baseline ([2]; single dose 1.25 mg/kg): −34%
COc1cnc(C(=O)Nc2ccc(F)c([C@@]3(CF)N=C(N)O[C@@H]4CCOC[C@@H]43)c2)cn1 [Compound I-067],5.39,−36,−64,,"Negative (When a shifted IC value was less than 1.1, this was defined as negative)",
NC1=N[C@](CF)(c2cc(NC(=O)c3cnc(OC(F)F)cn3)ccc2F)[C@H]2COCC[C@H]2O1 [Compound I-076],18.5,−68,−65,,"Negative (When a shifted IC value was less than 1.1, this was defined as negative)",
NC1=N[C@](CF)(c2cc(NC(=O)c3ccc(C(F)(F)F)cn3)ccc2F)[C@H]2COCC[C@H]2O1 [Compound I-105],40.8,,,,"Negative (When a shifted IC value was less than 1.1, this was defined as negative)",
